Laboratory results taken from patent US5567693A, “Method for inhibiting angiogenesis, proliferation of endothelial or tumor cells and tumor growth” (American Cyanamid Company, priority 1994, dated 1996).
Values joined by “and” are separate entries in the source; they are usually repeats but may differ in a detail not shown here. Equal entries are not always repeated. Structures can show the parent of a compound that is named as a salt. Where two headings read alike, the source gives them in different places.

Experiments:
[1] = test system: Adult Bovine Aortic Endothelial (ABAE) cell line; assay: Antiproliferative activity in ABAE cell line, PROTOCOL 2; format: cell-based; conditions: PROTOCOL 2, 48 hours
Procedure: (§1) The antiproliferative activity of the compounds of Formula I in an Adult Bovine Aortic Endothelial (ABAE) cell line and in Human Tumor cell lines is evaluated in three similar assays that measure growth inhibition. The assays are identified as follows:
(§2) PROTOCOL 1,2,and 3 are described in greater detail hereinbelow. In general, according to PROTOCOLS 1 and 2, the target ABAE and/or Human Tumor cells are exposed to the compounds of Formula I for 48 hours. PROTOCOL 3 exposes ABAE cells to the compounds for 4 days. A detailed description of the protocols is as follows:
Antiproliferative Activity in Human Tumor and Adult Bovine Aortic Endothelial Cell Lines (ABAE)
(§3) The antiproliferative activity of the compounds of Formula I is evaluated in a panel comprised of human tumor cell lines and an adult bovine aortic cell line (ABAE) as listed in PROTOCOL 1. This assay is a modification of PROTOCOL 1. The modifications include:
(§4) 1) each concentration for each compound is tested in a single well;
(§5) 2) compounds are tested at 20, 4, 0.8, 0.16 microgram/ml and additionally in some experiments at 100 and 0.32 microgram/ml;
(§6) 3) samples are pipetted into a 96-well plate for each of the cell lines by a Beckman Biomek 1000 SL robot;
(§7) 4) after fixing with TCA each well is washed with 0.35 ml distilled water twice, not five times;
(§8) 5) after staining with sulforhodamine B each well is washed 3 times, not five times;
(§9) 6) the growth inhibition (I) as % of control, is calculated using the RS-1 data package (BBN Software), for every concentration of drug, as follows: [formula] wherein: T is optical density measurement for treated cells after 48 hours;
(§10) C is optical density measurement for untreated cells after 48 hours;
(§11) 7) IC50 of growth inhibition is determined graphically from dose response curves, as is known in the art.
Table 1 presents the results depicting the antiproliferative activity of the compounds of Formula I against an Adult Bovine Aortic Endothelial cell line (ABAE), as evaluated by PROTOCOL 1 and 2. The results are presented in terms of IC50 and are as follows.

HTB 161 = assay: Antiproliferative activity in human tumor cell lines: HTB 161 (ovarian); format: cell-based; conditions: HTB 161 ovarian tumor, PROTOCOL 1 and PROTOCOL 2, 48 hours
Procedure: (§12) The assays are identified as follows:
as §2
(§13) The antiproliferative activity of the compounds of Formula I of the present invention is evaluated in a panel comprised of human tumor cell lines and an adult bovine aortic endothelial cell line (ABAE). The human tumor cell lines are from
(§14) Cultures are renewed after 20 passages with cells from a fresh stock of batch-frozen early passage cells. Cell lines are routinely checked for mycoplasma contamination (Genprobe). In a laminar flow hood, cells (1-5×10^4) are plated into 96-well microtiter plates in a volume of 0.1 ml/well with a bulk microtiter dispenser (Denley). […] Compounds are added using a Tomtec dispenser which simultaneously dispenses from one 96-well plate, containing the drug dilutions, to the plates containing the cells. After two days of continuous drug exposure, 50% cold trichloroacetic acid (TCA) is added to 10% final concentration to fix the cells, and after 60 minutes at 4° C., the TCA is aspirated and the plates are washed 5 times with deionized water using a microtiter plate washer. […] A 0.4% solution of the dye, sulforhodamine B, in […] is added to the plates, and the plates are washed 5 times with 1% glacial acetic acid using the automatic plate washed. The bound stain is solubilized with 0.1 ml of 10 mM Tris base. The optical densities are read from an automatic spectrophotometric plate reader (Dynatech) directly to a main frame computer (VAX 8600).
(§15) Positive controls, that include standard chemotherapeutic drugs (i.e., Adriamycin, Cisplatin, etc.), are included in every experiment.
(§16) Background optical density measurements (complete media-cells, and complete media+drug-cells) are automatically subtracted from the appropriate control and test wells. Mean values and standard errors are determined from duplicate wells. A measure is also made of the optical density at time when the drugs are added. The number of cells after treatment (P), as % of control, is calculated for every concentration of drug, as follows: [formula] wherein: T is optical density measurement for treated cells after 48 hours;
as §10
(§17) Co is optical density measurement for cells at the time of drug addition.
(§18) IC50 of growth inhibition is calculated from the sets of P values using the RS-1 data package (BBN Software).
as §3, §4, §5, §6, §7, §8, §9, §11

A2780/DDP = assay: Antiproliferative activity in human tumor cell lines: A2780/DDP (ovarian); format: cell-based; conditions: PROTOCOL 1 and PROTOCOL 2, 48 hours
Procedure: as §12, §2, §13, §14, §15, §16, §10, §17, §18, §3, §4, §5, §6, §7, §8, §9, §11

A2780S = assay: Antiproliferative activity in human tumor cell lines: A2780S (ovarian); format: cell-based; conditions: PROTOCOL 1 and PROTOCOL 2, 48 hours
Procedure: as §12, §2, §13, §14, §15, §16, §10, §17, §18, §3, §4, §5, §6, §7, §8, §9, §11

CACO2 = assay: Antiproliferative activity in human tumor cell lines: CACO2 (colon); format: cell-based; conditions: CACO2 colon tumor, PROTOCOL 1 and PROTOCOL 2, 48 hours
Procedure: as §1, §2, §13
(§19) All cell lines are maintained in log phase in RPMI 1640 media, supplemented with 5% fetal calf serum, penicillin/streptomycin and 2 mM L-glutamine. Cultures are renewed after 20 passages with cells from a fresh stock of batch-frozen early passage cells. Cell lines are routinely checked for mycoplasma contamination (Genprobe). In a laminar flow hood, cells (1-5×10^4) are plated into 96-well microtiter plates in a volume of 0.1 ml/well with a bulk microtiter dispenser (Denley). […] At this concentration, dimethylsulfoxide has no effect on cell growth. Compounds are added using a Tomtec dispenser which simultaneously dispenses from one 96-well plate, containing the drug dilutions, to the plates containing the cells. After two days of continuous drug exposure, 50% cold trichloroacetic acid (TCA) is added to 10% final concentration to fix the cells, and after 60 minutes at 4° C., the TCA is aspirated and the plates are washed 5 times with deionized water using a microtiter plate washer. The number of cells on the plate are quantitated using a protein dye-binding assay (Monks et al., 1991). A 0.4% solution of the dye, sulforhodamine B, in glacial acetic acid is added to the plates, and the plates are washed 5 times with 1% glacial acetic acid using the automatic plate washed. The bound stain is solubilized with 0.1 ml of 10 mM Tris base. The optical densities are read from an automatic spectrophotometric plate reader (Dynatech) directly to a main frame computer (VAX 8600).
as §15, §16, §10, §17, §18, §3, §4, §5, §6, §7
(§20) 5) after staining with sulforhodamine B each well is washed 3 times, not five times; […]

Human Tumor cell lines = assay: Antiproliferative activity in the panel of human tumor cell lines; format: cell-based; conditions: Homo sapiens; average over the 6 tumor cell lines
Procedure: as §1, §2, §13, §19, §15, §16, §10, §17, §18, §3, §4, §5, §6, §7, §20

SW620 = assay: Antiproliferative activity in human tumor cell lines: SW620 (colon); format: cell-based; conditions: SW-620, SW620 colon tumor, PROTOCOL 1 and PROTOCOL 2, 48 hours, read-out: IC50
Procedure: as §1, §2, §13, §19, §15, §16, §10, §17, §18, §3, §4, §5, §6, §7, §20

MIP = assay: Antiproliferative activity in human tumor cell lines: MIP (colon); format: cell-based; conditions: PROTOCOL 1 and PROTOCOL 2, 48 hours
Procedure: as §1, §2, §13, §19, §15, §16, §10, §17, §18, §3, §4, §5, §6, §7, §20

angiogenesis = conditions: Brem et al, cited from earlier work; for inhibition of angiogenesis: WO92/12717
tumor growth = conditions: in conjunction with cancer chemotherapy or radiation therapy; Teicher et al; cited from earlier work
[2] = test system: Adult Bovine Aortic Endothelial (ABAE) cell line; assay: Antiproliferative activity in ABAE cell line, PROTOCOL 3 (4 day assay); format: cell-based; conditions: 4 day assay (PROTOCOL 3)
Procedure: as §1, §2
Antiproliferative Activity in Adult Bovine Aortic Endothelial (ABAE) Cell Line
ABAE cells are grown in DMEMmedia (Mediatech, Washington, D.C.) supplemented with 10% calf serum (Hyclone). ABAE cells are plated in 24-well dishes at 8,000 cells/well, followed by the addition of increasing concentrations of 7-(hydrogen or di(C1 -C4)alkylamino)-8-halogen-9-(substituted)-6-demethyl-6-deoxytetracycline. After four days, the cells are detached and counted. […] The growth inhibition (I) as % of control is calculated as follows: [formula] wherein: Nc is the number of cells in untreated wells;
Nt is the number of cells in treated wells;
No is the number of plated cells.
IC50 of growth inhibition is determined from the sets of I values plotted by Kaleidograph software (Abelbeck Software).
In addition FIG. 1, presents the dose response curve for the compound of Example 10 for the above ABAE cell line obtained by using PROTOCOL 3.

[3] = Homo sapiens, Caco-2, read-out: IC50

Row | Molecule | IC50 ([1]; Bos taurus, read-out: IC50) [µg/mL] | IC50 (HTB 161) [µg/mL] | IC50 (A2780/DDP) [µg/mL] | IC50 (A2780S) [µg/mL] | IC50 (CACO2; [3]) [µg/mL] | IC50 (Human Tumor cell lines) [µg/mL] | IC50 (SW620) [µg/mL] | IC50 (MIP) [µg/mL] | inhibition of angiogenesis (angiogenesis) | other results
1 | CC(C)NCC(=O)Nc1c(Cl)cc2c(c1O)C(=O)C1=C(O)[C@]3(O)C(=O)C(C(N)=O)=C(O)[C@@H](N(C)C)C3CC1C2 (stereo partly drawn) [Example 15, [4S-(4α,12aα)]-8-Chloro-4-(dimethylamino)-1,4,4a,5,5a,6,11,12a,-octahydro-3,10,12,12a-tetrahydroxy-1,11-dioxo-9-[[[(1-methylethyl)amino]acetyl]amino]-2-naphthacenecarboxamide dihydrochloride] | < 1 |  |  |  |  |  |  |  |  | 
2 | CCC(C(=O)Nc1c(Cl)cc2c(c1O)C(=O)C1=C(O)[C@]3(O)C(=O)C(C(N)=O)=C(O)[C@@H](N(C)C)C3CC1C2)N1CCCC1 (stereo partly shown) [Example 19, dihydrochloride] | 4 | 2 | 1 | 1 | 4 | 2.3 | 3 | 3 |  | 
3 | CN(C)[C@@H]1C(O)=C(C(N)=O)C(=O)[C@@]2(O)C(O)=C3C(=O)c4c(O)ccc(Cl)c4[C@@H](O)[C@H]3C[C@@H]12 [Demeclocycline] |  |  |  |  |  |  |  |  | useful as inhibitors of angiogenesis | 
4 | CCC(C(=O)Nc1c(Cl)cc2c(c1O)C(=O)C1=C(O)[C@]3(O)C(=O)C(C(N)=O)=C(O)[C@@H](N(C)C)C3CC1C2)N(C)C (stereo partly shown) [Example 18, dihydrochloride] | 16 | 3 | 3 |  | 11 | 4.8 | 3 | 4 |  | 
5 | CN(C)[C@@H]1C(O)=C(C(N)=O)C(=O)[C@@]2(O)C(O)=C3C(=O)c4c(O)ccc(Cl)c4[C@@](C)(O)[C@H]3C[C@@H]12 [Chlortetracycline] |  |  |  |  |  |  |  |  | useful as inhibitors of angiogenesis | 
6 | CC(C(=O)Nc1c(Cl)cc2c(c1O)C(=O)C1=C(O)[C@]3(O)C(=O)C(C(N)=O)=C(O)[C@@H](N(C)C)C3CC1C2)N1CCCC1 (stereo partly drawn) [Example 13, 7S-(7α,10aα)]-N-[9-(Aminocarbonyl)-3-chloro-7-(dimethylamino)-5,5a,6,6a,7,10,10a,12-octahydro-1,8,10a,11-tetrahydroxy-10,12-dioxo-2-naphthacenyl]-α-methyl-1-pyrrolidineacetamide dihydrochloride] | 3 | 1 | 1 | 1 | 3 | 1.3 | 1 |  |  | 
7 | CN(C)c1ccc(O)c2c1C[C@H]1C[C@H]3[C@H](N(C)C)C(O)=C(C(N)=O)C(=O)[C@@]3(O)C(O)=C1C2=O [Minocycline] |  |  |  |  |  |  |  |  | useful as inhibitors of angiogenesis | number of metastases (tumor growth): the number of metastases is reduced; tumor growth (tumor growth): tumor growth is decreased; inhibition of angiogenesis compared with combination therapy of heparin and cortisone (angiogenesis; Cancer Research 51, 672-675): inhibits angiogenesis to an extent comparable to that of the combination therapy of heparin and cortisone; activity upon incubation with cells [2]: loosing its activity upon incubation with cells
8 | [4S-(4α,12aα)]-8 -Chloro-4-(dimethylamino)-9-[[(2-(dimethylamino) -1-oxopropyl]amino]-1,4,4a,5,5a,6,11,12a-octahydro-3,10,12,12a-tetrahydroxy-1,11-dioxo-9-[[[(1-methylethyl)amino]acetyl]amino]-2-naphthacenecarboxamide dihydrochloride [Example 16] |  |  |  |  |  |  |  |  |  | IC50 [1]: 3 µg/mL; IC50 (CACO2; dihydrochloride): 4.0 µg/mL and 8.0 µg/mL
9 | CN(C)[C@@H]1C(O)=C(C(=O)NCNCCCC[C@H](N)C(=O)O)C(=O)[C@@]2(O)C(O)=C3C(=O)c4c(O)cccc4[C@@](C)(O)[C@H]3C[C@@H]12 [Lymecycline] |  |  |  |  |  |  |  |  | useful as inhibitors of angiogenesis | 
10 | CC(C(=O)Nc1c(Cl)cc2c(c1O)C(=O)C1=C(O)[C@]3(O)C(=O)C(C(N)=O)=C(O)[C@@H](N(C)C)C3CC1C2)N1CCCCC1 (stereo partly drawn) [Example 14, 7S-(7α, 10aα)]-N-[9-(Aminocarbonyl)-3-chloro-7-(dimethylamino)-5,5a,6,6a,7,10,10a,12-octahydro-1,8,10a,11-tetrahydroxy-10,12-dioxo-2-naphthacenyl]-α-methyl-1-piperidineacetamide dihydrochloride] | < 0.8 | < 0.16 | < 0.16 | < 0.16 | 0.7 |  | < 0.16 | < 0.16 |  | 
